Results taken from patent US10214519B2, “Phosphatidylinositol 3-kinase inhibitors” (Gilead Sciences, Inc., priority 2016, dated 2019).

Target: PI3Kβ (Homo sapiens (Human), UniProt P42338)
Test: PI3K isoform TR-FRET enzymatic assay (PI3Kβ)
Type: biochemical
Conditions: 2× Km ATP, 30 minutes at 25° C.
Procedure, shortened: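 Heterodimeric recombinant PI3Kβ was incubated with compound 30 minutes at 25° C. Product was detected by TR-FRET competition with 10 nM labeled PIP3 for 35 nM Eu-GRP-1 PH domain after EDTA stop. Data were normalized to 1 μM wortmannin and DMSO, and IC50 was taken from a four-parameter fit.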

Sequence of PI3Kβ (P42338 whole entry, canonical isoform): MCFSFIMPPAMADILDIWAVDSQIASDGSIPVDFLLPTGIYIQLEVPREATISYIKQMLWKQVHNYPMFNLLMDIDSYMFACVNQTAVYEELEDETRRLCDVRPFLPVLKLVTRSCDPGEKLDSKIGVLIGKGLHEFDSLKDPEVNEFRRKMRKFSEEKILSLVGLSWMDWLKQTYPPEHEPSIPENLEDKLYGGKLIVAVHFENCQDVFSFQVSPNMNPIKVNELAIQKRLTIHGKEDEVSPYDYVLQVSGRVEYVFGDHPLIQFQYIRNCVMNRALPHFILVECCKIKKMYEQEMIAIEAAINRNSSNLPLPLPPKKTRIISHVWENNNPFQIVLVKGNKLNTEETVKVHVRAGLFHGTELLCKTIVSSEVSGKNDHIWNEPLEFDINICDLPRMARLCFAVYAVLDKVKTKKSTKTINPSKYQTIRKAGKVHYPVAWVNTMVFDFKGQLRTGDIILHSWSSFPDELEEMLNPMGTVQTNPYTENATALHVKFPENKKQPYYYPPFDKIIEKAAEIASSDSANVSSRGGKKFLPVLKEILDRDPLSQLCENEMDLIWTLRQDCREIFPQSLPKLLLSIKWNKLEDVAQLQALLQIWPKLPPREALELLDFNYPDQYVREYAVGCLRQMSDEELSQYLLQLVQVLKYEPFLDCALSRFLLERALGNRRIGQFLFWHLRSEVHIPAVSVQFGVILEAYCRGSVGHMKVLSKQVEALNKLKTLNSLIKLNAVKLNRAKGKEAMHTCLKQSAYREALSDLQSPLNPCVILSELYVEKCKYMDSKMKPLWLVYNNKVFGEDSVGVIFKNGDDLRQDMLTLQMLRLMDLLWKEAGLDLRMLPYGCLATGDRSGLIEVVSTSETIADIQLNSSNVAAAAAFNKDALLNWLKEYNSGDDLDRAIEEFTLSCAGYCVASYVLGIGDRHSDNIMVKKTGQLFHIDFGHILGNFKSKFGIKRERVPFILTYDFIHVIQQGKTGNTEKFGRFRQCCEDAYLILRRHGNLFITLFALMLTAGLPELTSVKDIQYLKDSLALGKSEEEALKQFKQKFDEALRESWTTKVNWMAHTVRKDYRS
Sequence of PI3Kβ (P27986 whole entry partner, canonical isoform): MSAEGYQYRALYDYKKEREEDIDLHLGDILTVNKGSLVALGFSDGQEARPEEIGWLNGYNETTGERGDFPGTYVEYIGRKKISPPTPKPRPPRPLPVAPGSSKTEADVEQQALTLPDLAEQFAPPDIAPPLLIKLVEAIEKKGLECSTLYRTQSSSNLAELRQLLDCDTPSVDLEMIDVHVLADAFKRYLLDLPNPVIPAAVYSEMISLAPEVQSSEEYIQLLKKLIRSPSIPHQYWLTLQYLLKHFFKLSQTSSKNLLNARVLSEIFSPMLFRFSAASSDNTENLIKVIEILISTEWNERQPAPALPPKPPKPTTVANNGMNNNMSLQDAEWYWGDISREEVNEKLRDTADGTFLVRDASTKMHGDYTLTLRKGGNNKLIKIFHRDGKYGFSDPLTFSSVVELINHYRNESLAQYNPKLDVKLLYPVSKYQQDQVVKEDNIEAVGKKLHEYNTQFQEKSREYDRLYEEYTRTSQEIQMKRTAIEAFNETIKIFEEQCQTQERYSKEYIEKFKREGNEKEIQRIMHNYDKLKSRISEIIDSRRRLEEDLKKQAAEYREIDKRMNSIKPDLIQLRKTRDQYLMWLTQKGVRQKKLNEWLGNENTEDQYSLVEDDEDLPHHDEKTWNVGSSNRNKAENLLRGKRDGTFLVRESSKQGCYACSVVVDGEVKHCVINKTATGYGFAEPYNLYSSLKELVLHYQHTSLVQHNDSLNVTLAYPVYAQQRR

Row | Structure (SMILES) | IC50 [nM]
1 | Cc1nc2c(-c3ccccc3)cc(N3CCOCC3)cc2n1-c1ccnc2c(Cl)cccc12 [Example 311, 4-(1-(8-chloroquinolin-4-yl)-2-methyl-4-phenyl-1H-benzo[d]imidazol-6-yl)morpholine] | 47
2 | Cc1nc2c(-c3ccccc3)cc(N3CCOCC3)cc2n1-c1ccnc2c(-c3ccccc3)cccc12 [Example 312, 4-(2-methyl-4-phenyl-1-(8-phenylquinolin-4-yl)-1H-benzo[d]imidazol-6-yl)morpholine] | 967
3 | Cc1nc2c(-c3cnn(C)c3)cc(N3CCOCC3)cc2n1-c1ccnc2c(Cl)cccc12 [Example 313, 4-(1-(8-chloroquinolin-4-yl)-2-methyl-4-(1-methyl-1H-pyrazol-4-yl)-1H-benzo[d]imidazol-6-yl)morpholine] | 9800
4 | Cc1nc2c(-c3ccnnc3)cc(N3CCOCC3)cc2n1-c1ccnc2c(Cl)cccc12 [Example 314, 4-(1-(8-chloroquinolin-4-yl)-2-methyl-4-(pyridazin-4-yl)-1H-benzo[d]imidazol-6-yl)morpholine] | 7800
5 | Cc1nc2c(-c3cncnc3)cc(N3CCOCC3)cc2n1-c1ccnc2c(Cl)cccc12 [Example 315, 4-(1-(8-chloroquinolin-4-yl)-2-methyl-4-(pyrimidin-5-yl)-1H-benzo[d]imidazol-6-yl)morpholine] | 490
6 | Cc1nc2c(-c3cccc(N(C)C)c3)cc(N3CCOCC3)cc2n1-c1ccnc2c(Cl)cccc12 [Example 316, 3-(1-(8-chloroquinolin-4-yl)-2-methyl-6-morpholino-1H-benzo[d]imidazol-4-yl)-N,N-dimethylaniline] | 2500
7 | Cc1nc2c(-c3cccnc3)cc(N3CCOCC3)cc2n1-c1ccnc2c(Cl)cccc12 [Example 317, 4-[3-(8-chloroquinolin-4-yl)-2-methyl-7-pyridin-3-ylbenzimidazol-5-yl]morpholine] | 690
8 | Cc1nc2c(-c3cccnc3)cc(N3CCOCC3)cc2n1-c1ccnc2c(-c3cccnc3)cccc12 [Example 318, 4-[2-methyl-7-pyridin-3-yl-3-(8-pyridin-3-ylquinolin-4-yl)benzimidazol-5-yl]morpholine] | 5200
9 | Cc1nc2c(-c3ccncc3)cc(N3CCOCC3)cc2n1-c1ccnc2c(Cl)cccc12 [Example 319, 4-[3-(8-chloroquinolin-4-yl)-2-methyl-7-pyridin-4-ylbenzimidazol-5-yl]morpholine] | 8600
10 | Cc1nc2c(-c3ccncc3)cc(N3CCOCC3)cc2n1-c1ccnc2c(-c3ccncc3)cccc12 [Example 320, 4-[2-methyl-7-pyridin-4-yl-3-(8-pyridin-4-ylquinolin-4-yl)benzimidazol-5-yl]morpholine] | > 10000
11 | Cc1nc2c(-c3cccc(C(N)=O)c3)cc(N3CCOCC3)cc2n1-c1ccnc2c(Cl)cccc12 [Example 321, 3-[1-(8-chloroquinolin-4-yl)-2-methyl-6-morpholin-4-ylbenzimidazol-4-yl]benzamide] | 4400
12 | Cc1nc2c(-c3cccc(C(N)=O)c3)cc(N3CCOCC3)cc2n1-c1ccnc2c(-c3cccc(C(N)=O)c3)cccc12 [Example 322, 3-[4-[4-(3-carbamoylphenyl)-2-methyl-6-morpholin-4-ylbenzimidazol-1-yl]quinolin-8-yl]benzamide] | > 10000
13 | Cc1nc2c(-c3ccccn3)cc(N3CCOCC3)cc2n1-c1ccnc2c(Cl)cccc12 [Example 323, 4-[3-(8-chloroquinolin-4-yl)-2-methyl-7-pyridin-2-ylbenzimidazol-5-yl]morpholine] | 417
14 | Cc1nc2c(-c3cnn[nH]3)cc(N3CCOCC3)cc2n1-c1ccnc2c(Cl)cccc12 [Example 329, 4-(1-(8-chloroquinolin-4-yl)-2-methyl-4-(1H-1,2,3-triazol-5-yl)-1H-benzo[d]imidazol-6-yl)morpholine] | 7

More lines, now with the values ahead:

Row | IC50 [nM] | Structure (SMILES)
15 | 5 | Cc1cc(-n2cnc3c(-c4cnc[nH]4)cc(N4CCOCC4)cc32)c2c(Cl)ccc(Cl)c2n1 [Example 330]
16 | 7 | CCc1nc2c(-c3c[nH]cn3)cc(N3CCOCC3)cc2n1-c1ccnc2c(Cl)cccc12 [Example 331, 4-[3-(8-chloroquinolin-4-yl)-2-ethyl-7-(1H-imidazol-4-yl)benzimidazol-5-yl]morpholine]
17 | 2 | Clc1cccc2c(-n3cnc4c(-c5c[nH]cn5)cc(N5CCOCC5)cc43)ccnc12 [Example 332, 4-(1-(8-chloroquinolin-4-yl)-4-(1H-imidazol-4-yl)-1H-benzo[d]imidazol-6-yl)morpholine]
18 | 9 | Cc1cc(-n2c(C)nc3c(-c4cnc[nH]4)cc(N4CCOCC4)cc32)c2c(Cl)ccc(Cl)c2n1 [Example 333, 4-[3-(5,8-dichloro-2-methylquinolin-4-yl)-7-(1H-imidazol-5-yl)-2-methylbenzimidazol-5-yl]morpholine]
19 | 24 | CCc1nc2c(-c3cnc[nH]3)cc(N3CCOCC3)cc2n1-c1cc(C)nc2c(Cl)ccc(Cl)c12 [Example 334, 4-[3-(5,8-dichloro-2-methylquinolin-4-yl)-2-ethyl-7-(1H-imidazol-5-yl)benzimidazol-5-yl]morpholine]
20 | 15 | Cc1nc2c(-c3cnc[nH]3)cc(N3CCOCC3)cc2n1-c1ccnc2c(F)ccc(F)c12 [Example 335, 4-[3-(5,8-difluoroquinolin-4-yl)-7-(1H-imidazol-5-yl)-2-methylbenzimidazol-5-yl]morpholine]
21 | 5 | Fc1ccc(F)c2c(-n3cnc4c(-c5cnc[nH]5)cc(N5CCOCC5)cc43)ccnc12 [Example 336, 4-[3-(5,8-difluoroquinolin-4-yl)-7-(1H-imidazol-5-yl)benzimidazol-5-yl]morpholine]
22 | 20 | CCc1nc2c(-c3cnc[nH]3)cc(N3CCOCC3)cc2n1-c1ccnc2c(F)ccc(F)c12 [Example 337, 4-[3-(5,8-difluoroquinolin-4-yl)-2-ethyl-7-(1H-imidazol-5-yl)benzimidazol-5-yl]morpholine]
23 | 70 | CCc1nc2c(-c3cnn[nH]3)cc(N3CCOCC3)cc2n1-c1ccnc2c(F)ccc(F)c12 [Example 376, 4-(1-(5,8-difluoroquinolin-4-yl)-2-ethyl-4-(1H-1,2,3-triazol-5-yl)-1H-benzo[d]imidazol-6-yl)morpholine]
24 | 35 | Cc1nc2c(-c3cnn[nH]3)cc(N3CCOCC3)cc2n1-c1ccnc2c(F)ccc(F)c12 [Example 377, 4-(1-(5,8-difluoroquinolin-4-yl)-2-methyl-4-(1H-1,2,3-triazol-5-yl)-1H-benzo[d]imidazol-6-yl)morpholine]
25 | 27 | Clc1cccc2c(-n3c(C4CC4)nc4c(-c5cnn[nH]5)cc(N5CCOCC5)cc43)ccnc12 [Example 378, 4-(1-(8-chloroquinolin-4-yl)-2-cyclopropyl-4-(1H-1,2,3-triazol-5-yl)-1H-benzo[d]imidazol-6-yl)morpholine]
26 | 8 | c1ccc2c(-n3cnc4c(-c5nnc[nH]5)cc(N5CCOCC5)cc43)cc(N3CCNCC3)nc2c1 [Example 379, 4-(1-(2-(piperazin-1-yl)quinolin-4-yl)-4-(4H-1,2,4-triazol-3-yl)-1H-benzo[d]imidazol-6-yl)morpholine]
27 | 240 | Cc1nnc(-c2cc(N3CCOCC3)cc3c2ncn3-c2cc(-c3cn[nH]c3)nc3ccccc23)[nH]1 [Example 380, 4-(1-(2-(1H-pyrazol-4-yl)quinolin-4-yl)-4-(5-methyl-4H-1,2,4-triazol-3-yl)-1H-benzo[d]imidazol-6-yl)morpholine]
